Results from patent publication US20100172854A1, “ANTIBACTERIAL FORMULATIONS” (priority 2007, published 2010).
≈ marks a conversion by molar mass, not a printed value.

How the values were obtained:
S. aureus ATCC 12600-U = assay: MBC assay; format: cell-based, Staphylococcus aureus
Procedure: (§1) The staphylococci were cultured and maintained on Mueller-Hinton Medium (agar and broth) at pH 7.2; cultures were incubated aerobically at 37° C. for 19-20 hours.
(§2) This assay, normally carried out after an MIC assay, determines the minimum concentration of a compound that is lethal to the micro-organism being tested.
(§3) These samples were then individually sub-cultured on antibiotic-free agar medium, under the incubation conditions described above. Following incubation they were examined visually for microbial growth.

S. aureus CPHL VISA Mu50 = assay: MBC assay; format: cell-based, Staphylococcus aureus; conditions: resistance phenotype Van (intermediate)
Procedure: as §1, §2, §3

S. aureus CPHL VISA Mu3 = assay: MBC assay; format: cell-based, Staphylococcus aureus; conditions: resistance phenotype Van (intermediate)
Procedure: as §1, §2, §3

S. aureus ATCC 12605 = assay: MBC assay; format: cell-based, Staphylococcus aureus
Procedure: as §1, §2, §3

S. aureus ATCC 12606 = assay: MBC assay; format: cell-based, Staphylococcus aureus
Procedure: as §1, §2, §3

S. aureus ATCC 12602 = assay: MBC assay; format: cell-based, Staphylococcus aureus
Procedure: as §1, §2, §3

S. aureus ATCC 25923 = assay: MBC assay; format: cell-based, Staphylococcus aureus
Procedure: as §1, §2, §3

S. aureus CPHL EMRSA 15 = assay: MBC assay; format: cell-based, Staphylococcus aureus; conditions: resistance phenotype Met/β-lactams
Procedure: as §1, §2, §3

P. acnes PRP-002 = assay: Agar dilution MIC assay; format: cell-based, Propionibacterium acnes; conditions: Cutibacterium acnes, PRP002, resistance phenotype Tet/MLS
Procedure: (§4) The propionibacteria were cultured and maintained on Wilkins-Chalgren Anaerobe Medium (agar and broth) at pH 6.0; all cultures were incubated anaerobically at 37° C. for 72 hours.
(§5) This is a standard international method for quantitatively assessing the antimicrobial activity of a compound in a solid medium. The test compound was prepared to 40× the highest concentration required (e.g. 10 mg/ml for a final concentration of 250 μg/ml) and a series of doubling dilutions were performed in a suitable solvent. A set amount of these antimicrobial stock solutions was then added to molten agar medium (ca. 55° C.), mixed thoroughly, poured into sterile Petri dishes and allowed to cool/set. The culture medium was as described above.
(§6) A Multipoint™ Inoculator (AQS Manufacturing Ltd, UK) was used to inoculate the plates by spotting the inocula onto the surface of the agar, delivering approximately 1 to 2 μl per spot (yielding 10^5 CFU (colony forming units) per spot).
(§7) The plate(s) were then incubated under the conditions described above, following which they were examined visually for signs of bacterial growth. The MIC value was ascertained when there was a marked reduction in, or total loss of, growth on the test plate at the lowest concentration as compared to that of the growth on the control plate.
(§8) The assays were conducted in triplicate and included a positive control (culture medium, diluting solvent and inoculum).

P. acnes PRP-053 = assay: Agar dilution MIC assay; format: cell-based, Propionibacterium acnes; conditions: Cutibacterium acnes, PRP053, resistance phenotype Tet/MLS
Procedure: as §4, §5, §6, §7, §8

P. acnes PRP-004 = assay: Agar dilution MIC assay; format: cell-based, Propionibacterium acnes; conditions: Cutibacterium acnes, PRP004, resistance phenotype Tet
Procedure: as §4, §5, §6, §7, §8

P. acnes PRP-017 = assay: Agar dilution MIC assay; format: cell-based, Propionibacterium acnes; conditions: Cutibacterium acnes, PRP017, resistance phenotype MLS
Procedure: as §4, §5, §6, §7, §8

P. acnes PRP-059 = assay: Agar dilution MIC assay; format: cell-based, Propionibacterium acnes; conditions: Cutibacterium acnes, PRP059, resistance phenotype MLS
Procedure: as §4, §5, §6, §7, §8

P. acnes PRP-023 = assay: Agar dilution MIC assay; format: cell-based, Propionibacterium acnes; conditions: Cutibacterium acnes, PRP023, resistance phenotype MLSK
Procedure: as §4, §5, §6, §7, §8

P. acnes PRP-010 = assay: Agar dilution MIC assay; format: cell-based, Propionibacterium acnes; conditions: Cutibacterium acnes, PRP010, resistance phenotype MLSK
Procedure: as §4, §5, §6, §7, §8

P. acnes PRP-026 = assay: Agar dilution MIC assay; format: cell-based, Propionibacterium acnes; conditions: Cutibacterium acnes, PRP026, resistance phenotype MLS
Procedure: as §4, §5, §6, §7, §8

P. acnes PRP-039 = assay: Agar dilution MIC assay; format: cell-based, Propionibacterium acnes; conditions: Cutibacterium acnes, PRP039, resistance phenotype Tet/MLS
Procedure: as §4, §5, §6, §7, §8

P. acnes PRP-102 = assay: Agar dilution MIC assay; format: cell-based, Propionibacterium acnes; conditions: Cutibacterium acnes, PRP102, resistance phenotype Tet/MLS
Procedure: as §4, §5, §6, §7, §8

P. acnes PRP-101 = assay: Agar dilution MIC assay; format: cell-based, Propionibacterium acnes; conditions: Cutibacterium acnes, PRP101, resistance phenotype Tet/MLS
Procedure: as §4, §5, §6, §7, §8

P. acnes PRP-068 = assay: Agar dilution MIC assay; format: cell-based, Propionibacterium acnes; conditions: Cutibacterium acnes, PRP068, resistance phenotype Ery
Procedure: as §4, §5, §6, §7, §8

P. acnes PRP-046 = assay: Agar dilution MIC assay; format: cell-based, Propionibacterium acnes; conditions: Cutibacterium acnes, PRP046, resistance phenotype None
Procedure: as §4, §5, §6, §7, §8

P. acnes PPR-007 = assay: Agar dilution MIC assay; format: cell-based, Propionibacterium acnes; conditions: Cutibacterium acnes, PPR007
Procedure: as §4, §5, §6, §7, §8

P. acnes PRP-008 = assay: Agar dilution MIC assay; format: cell-based, Propionibacterium acnes; conditions: Cutibacterium acnes, PRP008, resistance phenotype Clin
Procedure: as §4, §5, §6, §7, §8

P. acnes PRP-003 = assay: Agar dilution MIC assay; format: cell-based, Propionibacterium acnes; conditions: Cutibacterium acnes, PRP003, resistance phenotype Tet
Procedure: as §4, §5, §6, §7, §8

[1] = tested on: acyl-CoA: cholesterol acyltransferase (ACAT); conditions: compound isolated from Aspergillus fumigatus, believed to be Antioxidant 2246; cited from earlier work

For `Cc1cc(Cc2cc(C)cc(C(C)(C)C)c2O)c(O)c(C(C)(C)C)c1` [AO 2246, 2,2′-methylene-bis(4-methyl-6-tert-butylphenol)], the “MIC/MBC Ratio” value (S. aureus ATCC 12600-U) was 0.06, the MBC (S. aureus ATCC 12600-U; Staphylococcus aureus, ATCC12600) was 15.6 µg/mL (≈ 45.8 µM) and the MBC (S. aureus CPHL VISA Mu50; Staphylococcus aureus) was 15.6 µg/mL (≈ 45.8 µM). The “MIC/MBC Ratio” value (S. aureus CPHL VISA Mu50) was 0.06, the MBC (S. aureus CPHL VISA Mu3; Staphylococcus aureus) was 7.8 µg/mL (≈ 22.9 µM) and the “MIC/MBC Ratio” value (S. aureus CPHL VISA Mu3) was 0.25. For the same molecule, the “MIC/MBC Ratio” value (S. aureus ATCC 12605) was 1, the MBC (S. aureus ATCC 12605; Staphylococcus aureus, ATCC12605) was 1.95 µg/mL (≈ 5.73 µM) and the “MIC/MBC Ratio” value (S. aureus ATCC 12606) was 0.5. For the same molecule, the MBC (S. aureus ATCC 12606; Staphylococcus aureus, ATCC12606) was 3.9 µg/mL (≈ 11.5 µM), the “MIC/MBC Ratio” value (S. aureus ATCC 12602) was 0.5 and the MBC (S. aureus ATCC 12602; Staphylococcus aureus, ATCC12602) was 3.9 µg/mL (≈ 11.5 µM). The “MIC/MBC Ratio” value (S. aureus ATCC 25923) was 1, the MBC (S. aureus ATCC 25923; Staphylococcus aureus, ATCC25923) was 7.8 µg/mL (≈ 22.9 µM) and the MBC (S. aureus CPHL EMRSA 15; Staphylococcus aureus) was 7.8 µg/mL (≈ 22.9 µM). The “MIC/MBC Ratio” value (S. aureus CPHL EMRSA 15) was 0.25, the MIC (P. acnes PRP-002) was 3.9 µg/mL (≈ 11.5 µM) and the MIC (P. acnes PRP-053) was 3.9 µg/mL (≈ 11.5 µM). It also gave an MIC (P. acnes PRP-004) of 3.9 µg/mL (≈ 11.5 µM), an MIC (P. acnes PRP-017) of 3.9 µg/mL (≈ 11.5 µM) and an MIC (P. acnes PRP-059) of 3.9 µg/mL (≈ 11.5 µM). For the same molecule, the MIC (P. acnes PRP-023) was 3.9 µg/mL (≈ 11.5 µM), the MIC (P. acnes PRP-010) was 3.9 µg/mL (≈ 11.5 µM) and the MIC (P. acnes PRP-026) was 3.9 µg/mL (≈ 11.5 µM). The MIC (P. acnes PRP-039) was 3.9 µg/mL (≈ 11.5 µM), the MIC (P. acnes PRP-102) was 3.9 µg/mL (≈ 11.5 µM) and the MIC (P. acnes PRP-101) was 3.9 µg/mL (≈ 11.5 µM). For the same molecule, the MIC (P. acnes PRP-068) was 3.9 µg/mL (≈ 11.5 µM), the MIC (P. acnes PRP-046) was 3.9 µg/mL (≈ 11.5 µM) and the MIC (P. acnes PPR-007) was 1.95 µg/mL (≈ 5.73 µM). For the same molecule, the MIC (P. acnes PRP-008) was 1.95 µg/mL (≈ 5.73 µM), the MIC (P. acnes PRP-003) was 3.9 µg/mL (≈ 11.5 µM) and the “inhibitor of the enzyme ACAT” value [1] was “inhibitor”.
